Results from patent publication US20170313674A1, “BENZYLHYDROXIDE DERIVATIVES, PREPARATION THEREOF AND THERAPEUTIC USE THEREOF” (SANOFI, priority 2014, published 2017).
Where two headings read alike, the source gives them in different places.

Experiments:
[1] = tested on: mitochondrial ATP production on non-small cell lung carcinoma cell lines NCI-H460; assay: Mitochondrial ATP analysis (Cell Titer Glo) in NCI-H460 cells; type: cell-based; conditions: 1-hour incubation, with sodium iodoacetate (100 μM), concentration inhibiting 50% of mitochondrial ATP production, read-out: IC50 (mito ATP)
Outline: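 NCI-H460 cells (1,000/well) treated 24 h after plating for 1 h with compound dose series alone or with 100 μM sodium iodoacetate; oligomycin A (10 μg/ml) and FCCP (30 μM) as controls; Cell Titer Glo luminescence. Mitochondrial ATP = ATP under iodoacetate minus ATP under iodoacetate+oligomycin; IC50 (M).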

HIF-1a = assay: Western blot model: HIF1-a stabilization in Hep3b cells under hypoxia; type: cell-based; conditions: hypoxia 1% O2, 6 hours; for Western Blot (range of decrease of HIF1-a stabilization): class symbol
Outline: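 Hep3B cells were exposed to compound under hypoxia (1% O2, 37 °C, 5% CO2) for 6 hours. HIF-1a was detected by western blot of 25 μg lysate protein with β-actin as loading control and ECL read-out. Activity is given as a percentage range relative to control.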

## COc1ccc(C(O)C(C)(C)Oc2ccc(-c3csc(-c4ccc(OC(C)(C)C(O)c5ccc(OC)c(OC)c5)cc4)n3)cc2)cc1OC (stereo not drawn) [Compound I-27, 1-(3,4-dimethoxyphenyl)-2-[4-[2-[4-[2-(3,4-dimethoxyphenyl)-2-hydroxy-1,1-dimethyl-ethoxy]phenyl]thiazol-4-yl]phenoxy]-2-methyl-propan-1-ol]
[1]
  IC50: 0.00368 µM
HIF-1a
  Western Blot (decrease of HIF1-a stabilization, percentage relative to control): 40%
  Western Blot (range of decrease of HIF1-a stabilization): * (* represents a decrease of HIF-a stabilization between 30 to 50%)

## COc1ccc(C(O)C(C)(C)Oc2ccc(-c3csc(-c4ccc(OC(C)(C)C(O)c5ccc(OC)c(OC)c5)cc4)c3)cc2)cc1OC (stereo not drawn) [Compound I-34, 1-(3,4-dimethoxyphenyl)-2-[4-[5-[4-[2-(3,4-dimethoxyphenyl)-2-hydroxy-1,1-dimethyl-ethoxy]phenyl]-3-thienyl]phenoxy]-2-methyl-propan-1-ol]
[1]; Homo sapiens, NCI-H460, 1 h
  IC50: 0.006 µM
HIF-1a
  Western Blot (decrease of HIF1-a stabilization, percentage relative to control): 64%
  Western Blot (range of decrease of HIF1-a stabilization): ** (** represents a decrease of HIF-a stabilization between 50 to 70%)

## COc1ccc(C(O)COc2ccc(-c3csc(-c4ccc(OCC(O)c5ccc(OC)c(OC)c5)cc4)c3)cc2)cc1OC (stereo not drawn) [Compound I-35, 1-(3,4-dimethoxyphenyl)-2-[4-[5-[4-[2-(3,4-dimethoxyphenyl)-2-hydroxy-ethoxy]phenyl]-3-thienyl]phenoxy]ethanol]
[1]; Homo sapiens, NCI-H460, 1 h
  IC50: 0.303 µM
HIF-1a
  Western Blot (decrease of HIF1-a stabilization, percentage relative to control): 68%
  Western Blot (range of decrease of HIF1-a stabilization): ** (** represents a decrease of HIF-a stabilization between 50 to 70%)

## COc1ccc(C(O)COc2ccc(-c3noc(-c4ccc(OCC(O)c5ccc(OC)c(OC)c5)cc4)n3)cc2)cc1OC (stereo not drawn) [Compound I-36, 1-(3,4-dimethoxyphenyl)-2-[4-[5-[4-[2-(3,4-dimethoxyphenyl)-2-hydroxy-ethoxy]phenyl]-1,2,4-oxadiazol-3-yl]phenoxy]ethanol]
[1]; Homo sapiens, NCI-H460, 1 h
  IC50: 0.676 µM
HIF-1a
  Western Blot (decrease of HIF1-a stabilization, percentage relative to control): 62%
  Western Blot (range of decrease of HIF1-a stabilization): ** (** represents a decrease of HIF-a stabilization between 50 to 70%)

## COc1ccc(C(O)C(C)(C)Oc2ccc(-c3noc(-c4ccc(OC(C)(C)C(O)c5ccc(OC)c(OC)c5)cc4)n3)cc2)cc1OC (stereo not drawn) [Compound I-38, 1-(3,4-dimethoxyphenyl)-2-[4-[5-[4-[2-(3,4-dimethoxyphenyl)-2-hydroxy-11-dimethyl-ethoxy]phenyl]-1,2,4-oxadiazol-3-yl]phenoxy]-2-methyl-propan-1-ol]
[1]
  IC50: 0.133 µM
HIF-1a
  Western Blot (decrease of HIF1-a stabilization, percentage relative to control): 79%
  Western Blot (range of decrease of HIF1-a stabilization): *** (*** represents a decrease of HIF-a stabilization higher than 70%)

## COc1ccc(C(O)C(C)Oc2ccc(-c3nsc(-c4ccc(OC(C)C(O)c5ccc(OC)c(OC)c5)cc4)n3)cc2)cc1OC (stereo not drawn) [Compound I-39, 1-(3,4-dimethoxyphenyl)-2-[4-[5-[4-[2-(3,4-dimethoxyphenyl)-2-hydroxy-1-methyl-ethoxy]phenyl]-1,2,4-thiadiazol-3-yl]phenoxy]propan-1-ol]
[1]; Homo sapiens, NCI-H460, 1 h
  IC50: 0.0925 µM
HIF-1a
  Western Blot (decrease of HIF1-a stabilization, percentage relative to control): 51%
  Western Blot (range of decrease of HIF1-a stabilization): ** (** represents a decrease of HIF-a stabilization between 50 to 70%)

## COc1ccc(C(O)C(C)(C)Oc2ccc(-c3nsc(-c4ccc(OC(C)(C)C(O)c5ccc(OC)c(OC)c5)cc4)n3)cc2)cc1OC (stereo not drawn) [Compound I-42, 1-(3,4-dimethoxyphenyl)-2-[4-[5-[4-[2-(3,4-dimethoxyphenyl)-2-hydroxy-1,1-dimethyl-ethoxy]phenyl]-1,2,4-thiadiazol-3-yl]phenoxy]-2-methyl-propan-1-ol]
[1]; Homo sapiens, NCI-H460, 1 h
  IC50: 0.03 µM
HIF-1a
  Western Blot (decrease of HIF1-a stabilization, percentage relative to control): 56%
  Western Blot (range of decrease of HIF1-a stabilization): ** (** represents a decrease of HIF-a stabilization between 50 to 70%)

## COc1ccc(C(O)C(C)Oc2ccc(-c3cnc(-c4ccc(OC(C)C(O)c5ccc(OC)c(OC)c5)cc4)o3)cc2)cc1OC (stereo not drawn) [Compound I-45, 1-(3,4-dimethoxyphenyl)-2-[4-[2-[4-[2-(3,4-dimethoxyphenyl)-2-hydroxy-1-methyl-ethoxy]phenyl]oxazol-5-yl]phenoxy]propan-1-ol]
[1]; Homo sapiens, NCI-H460, 1 h
  IC50: 0.426 µM
HIF-1a
  Western Blot (decrease of HIF1-a stabilization, percentage relative to control): 87%
  Western Blot (range of decrease of HIF1-a stabilization): *** (*** represents a decrease of HIF-a stabilization higher than 70%)

## COc1ccc(C(O)C(C)(C)Oc2ccc(-c3cn(C)c(-c4ccc(OC(C)(C)C(O)c5ccc(OC)c(OC)c5)cc4)n3)cc2)cc1OC (stereo not drawn) [Compound I-57, 1-(3,4-dimethoxyphenyl)-2-[4-[2-[4-[2-(3,4-dimethoxyphenyl)-2-hydroxy-1,1-dimethyl-ethoxy]phenyl]-1-methyl-imidazol-4-yl]phenoxy]-2-methyl-propan-1-ol]
[1]; Homo sapiens, NCI-H460, 1 h
  IC50: 0.0519 µM
HIF-1a
  Western Blot (decrease of HIF1-a stabilization, percentage relative to control): 18%
  Western Blot (range of decrease of HIF1-a stabilization): − (− represents a decrease of HIF1-a stabilization is less than 30%)

## COc1ccc(C(O)COc2ccc(-c3cn(C)c(-c4ccc(OCC(O)c5ccc(OC)c(OC)c5)cc4)n3)cc2)cc1OC (stereo not drawn) [Compound I-58, 1-(3,4-dimethoxyphenyl)-2-[4-[2-[4-[2-(3,4-dimethoxyphenyl)-2-hydroxy-ethoxy]phenyl]-1-methyl-imidazol-4-yl]phenoxy]ethanol]
[1]; Homo sapiens, NCI-H460, 1 h
  IC50: 0.458 µM
HIF-1a
  Western Blot (decrease of HIF1-a stabilization, percentage relative to control): 56%
  Western Blot (range of decrease of HIF1-a stabilization): ** (** represents a decrease of HIF-a stabilization between 50 to 70%)

## COc1ccc(C(O)COc2ccc(-c3csc(-c4ccc(OC(C)(C)C(O)c5ccc(OC)c(OC)c5)cc4)n3)cc2)cc1OC (stereo not drawn) [Compound I-63, 1-(3,4-dimethoxyphenyl)-2-[4-[4-[4-[2-(3,4-dimethoxyphenyl)-2-hydroxy-ethoxy]phenyl]thiazol-2-yl]phenoxy]-2-methyl-propan-1-ol]
[1]; Homo sapiens, NCI-H460, 1 h
  IC50: 0.0429 µM
HIF-1a
  Western Blot (decrease of HIF1-a stabilization, percentage relative to control): 64%
  Western Blot (range of decrease of HIF1-a stabilization): ** (** represents a decrease of HIF-a stabilization between 50 to 70%)

## COc1ccc(C(O)COc2ccc(-c3nc(-c4ccc(OC(C)(C)C(O)c5ccc(OC)c(OC)c5)cc4)cs3)cc2)cc1OC (stereo not drawn) [Compound I-64, 1-(3,4-dimethoxyphenyl)-2-[4-[2-[4-[2-(3,4-dimethoxyphenyl)-2-hydroxy-ethoxy]phenyl]thiazol-4-yl]phenoxy]-2-methyl-propan-1-ol]
[1]; Homo sapiens, NCI-H460, 1 h
  IC50: 0.18 µM
HIF-1a
  Western Blot (decrease of HIF1-a stabilization, percentage relative to control): 58%
  Western Blot (range of decrease of HIF1-a stabilization): ** (** represents a decrease of HIF-a stabilization between 50 to 70%)
